Values of other authors as cited in US20030170318A1, “Fluoride compositions and uses thereof” (priority 2000, published 2003).

Columns and labels:
[1] = system: Ras/RasGAP complex; conditions: fluoride salt added to mixed Ras and GAP; free fluoride needed in solution
[2] = system: osteosarcoma cell line UMR 106; conditions: 0.5 mM fluoride, UMR 106 cultures
[3] = system: human leukemia (HL-60) cells
[4] = system: Drosophila; conditions: mutation induced by Trenimon and 1-phenyl-3,3-dimethyltriazene
[5] = children
[6] = system: normal cells; conditions: pre, simultaneous and post-treatments; Trenimon-induced chromosomal aberrations
[7] = system: mutant RhoGAP; conditions: arginine to alanine mutant, in the presence of aluminum fluoride

For [Be+2].[F-].[F-] [beryllium fluoride, reference compound], the Ras/RasGAP complex formation [1] is listed as “readily formed”.
For F [fluoride], the apoptosis [2] is given as “induction of apoptosis”, the cell proliferation [2] is given as “decrease in cell proliferation” and the cell death [3] is given as “causes cell death”. For the same compound, the “caspase-3 activation leading to apoptosis” value ([3]; cleaves poly(ADP-ribose) polymerase) was “activation of caspase-3”, the antimutagenic effect [4] was “strong antimutagenic effect” and the “toxic blood plasma fluoride level” value was “about 15 μM”. For the same compound, the “fluoride retained of all fluoride consumed” value [5] was “twenty”.
In the case of [F-].[F-].[Mg+2] [magnesium fluoride], the Ras/RasGAP complex formation [1] is listed as “readily formed”.
For [F-].[Na+] [sodium fluoride], the “frequency of undamaged mitosis” value [6] is given as “significantly enhanced”.
In the case of aluminum fluoride, the Ras/RasGAP complex formation [1] is given as “readily formed” and the “hydrolysis of RhoGTP to RhoGDP by mutant RhoGAP” value [7] is given as “as effective as normal RhoGAP”.
